According to patent US5019384A, “Immunonodulating compositions and their use” (Massachusetts Institute of Technology, priority 1989, dated 1991):
“Also recorded” adds a separate entry of the source. Read-outs that look alike come from different tables or passages of the source.

Legend:
I-A^k = target: T1, I-A^k (Mus musculus, UniProt P01910+P06343); experiment: Gel filtration binding of 125I-labeled peptide to purified Ia (I-A^k); settings: I-A^k; 125I-labeled peptide, 48 hours at room temperature, no inhibitor
T1 construct: endogenous in cells
T1 sequence (P01910 24-256): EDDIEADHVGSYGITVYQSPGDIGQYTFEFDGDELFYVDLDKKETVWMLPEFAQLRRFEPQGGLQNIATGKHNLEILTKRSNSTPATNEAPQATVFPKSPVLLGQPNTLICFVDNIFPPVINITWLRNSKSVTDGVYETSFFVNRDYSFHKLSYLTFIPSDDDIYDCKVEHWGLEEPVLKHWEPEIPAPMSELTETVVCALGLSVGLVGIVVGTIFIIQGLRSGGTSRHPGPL
T1 sequence (P06343 28-263): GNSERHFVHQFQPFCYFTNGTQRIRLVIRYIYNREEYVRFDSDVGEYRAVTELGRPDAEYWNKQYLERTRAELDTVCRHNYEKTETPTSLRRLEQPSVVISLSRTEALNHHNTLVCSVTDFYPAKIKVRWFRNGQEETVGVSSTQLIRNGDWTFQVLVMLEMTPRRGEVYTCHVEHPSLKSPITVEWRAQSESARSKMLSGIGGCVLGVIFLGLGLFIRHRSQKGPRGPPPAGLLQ
Text: (§1) The peptide P12-26 was modified by the addition of a tyrosine residue to the N-terminus to serve as an acceptor for the ^125 I.
(§2) Ia-molecules were purifed from Nonidet P-40 (NP-40) lysates of A20 (H2^d) or AKTB-1b (H2^k) cells by affinity chromatography using the following monoclonal antibodies: MK-D6 (I-A^d -specific), 10-3-6 (I-A^k -specific) specific) or 14-4-4 (I-E^d/k -specific) coupled to Sepharose 4B beads (Pharmacia Fine Chemicals, Sweden).
(§3) A gel filtration assay was used for determining the degree of association between immunogenic peptides and Ia. The assay is described in: Buus, S. et al., Proceeding of the National Academy of Sciences, U.S.A. (1986) 83:3968, the teaching of which is incorporated herein by reference. Briefly, 40 μmole of purified Ia in 1 percent NP-40/PBS was mixed with 0.2 μmole of ^125 I-labeled peptide (approximately 200,000 cpm for each experiment) and incubated for 48 hours at room temperature to allow for formation of the Ia-peptide complex. The Ia-peptide complexes were separated from free peptide by gel filtration and the percentage of peptide bound to Ia was calculated as the ratio of the ^125 I-labeled peptide in the void volume to the total ^125 I-labeled peptide recovered.

T-cell hybridoma 8I = experiment: Activation of T-cell hybridoma 8I measured by IL-2 secretion; format: cell-based, A/J strain; settings: for Stimulation of 8I: in the context of I-E^k
Experimental: (§4) T-cell hybridomas were obtained as described in Guillet et al., Science (1985) 235:865-870: and Lechler et al., J. Exp. Med. (1986) 163:678-696 (particularly references cited therein). The procedure for determining inhibition or activation is described in Guillet et al., supra.
(§5) The activation of T-cell hybridomas was measured by their ability to secrete IL-2 (T-cell hybridomas (5×10^4) that were incubated with 5×10^4 antigen-presenting cells in wells of a 96-well tissue Costar plate (no. 3596) in 200 μl RPMI complete medium containing the appropriate antigen concentrations). After 24 hrs of culture, supernatant (50 μl) was removed and then assayed for IL-2 content by its ability to maintain the growth of the IL-2 Dependent CTL-L cells: 1 μCi of ^3 H tritiated thymidine was added per well. Six hours later the cells were harvested by an automatic cell harvester (Skartron Inc., Sterling, Va.) and thymidine incorporation measured by scintillation counting.
8I (I-E^k -restricted) T-cell hybridomas and TA3 B presenting cells (5×10^4) were cocultured with various concentration of P15-26 and either medium alone or 60 μM of Ova (P324-336) or 60 μM Nase (P61-80) as described above. […] In addition, no other peptides representative of the remainder of the Nase sequence were able to inhibit 7B7.3 activation.

[1] = test system: T-cell hybridoma DO-11.10; format: cell-based
T-cell hybridoma 7B7.3 = experiment: Activation of T-cell hybridoma 7B7.3 measured by IL-2 secretion; format: cell-based, Balb/c mouse; settings: for Inhibition of P15-26-dependent 7B7.3 activation: P15-26 as activator, I-A^d context, IL-2 release; for Stimulation of 7B7.3: in the context of I-A^d
Experimental: as §4, §5
The activity of T-cell hybridoma 7B7.3 was measured in the presence of various concentrations of P15-26, either in RPMI 1640 with 10 percent fetal calf serum alone or in the presence of P12-24 20 μM or P12-24 60 μM. A20 B-cell lymphomas (5×10^4 cells/well) were used as antigen presenting cells. After 24 hrs of culture, supernatant (50 μl) was harvested and then assayed for IL-2 concentration by following incorporation of ^3 H thymidine into the IL-2 dependent CTL-L cell line (10^4 cells/well). The indicated values in FIG. 2 represent the arithmetic mean of triplicate samples.
The following work was carried out to examine the competitive ability of peptides derived from Staphylococcus nuclease (Nase), residues 61-80 (P61-80) and from ovalbumin (Ova), residues 324-336 (P324-336) to inhibit P15-26-dependent activation of the hybridoma 7B7.3. Each of these peptides has been shown in their respective cases to be I-A^d -restricted and to be immunodominant for their respective antigens. Finnegan, A. et al. Journal of Experimental Medicine (1986) 164:897-910: Shimonkevitz, R. et al., Journal of Immunology (1984). 5×10^4 TA3 cells were added to each well. Various concentrations of P15-26 were added with either medium (RPMI 1640 with 10 percent fetal calf serum) alone or 30 μM or Ova (P324-36) of 60 μM of Nase ([…]). A20 B-cell lymphoma (5×10^4 cells/well) was used as antigen presenting cells. 7B7.3 T-cell hybridomas (5×10^4) were then added and cultured for 24 hrs. The level of T-cell stimulation was assayed by determining the IL-2 concentration as indicated in Example II. […] The degree of inhibition is […] upon the ratio of activator to inhibitor in each case.

I-A^d = target: T2, I-A^d (Mus musculus, UniProt P01921+P04228); experiment: Gel filtration binding of 125I-labeled peptide to purified Ia (I-A^d); settings: I-A^d; 125I-labeled peptide, 48 hours at room temperature, no inhibitor
T2 construct: endogenous in cells
T2 sequence (P04228 24-256): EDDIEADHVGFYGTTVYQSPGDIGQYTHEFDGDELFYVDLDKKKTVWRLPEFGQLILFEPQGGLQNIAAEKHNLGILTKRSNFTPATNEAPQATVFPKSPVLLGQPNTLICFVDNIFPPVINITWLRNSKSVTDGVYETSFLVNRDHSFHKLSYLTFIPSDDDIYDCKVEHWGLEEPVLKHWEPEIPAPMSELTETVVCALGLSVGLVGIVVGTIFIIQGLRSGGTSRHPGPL
T2 sequence (P01921 28-265): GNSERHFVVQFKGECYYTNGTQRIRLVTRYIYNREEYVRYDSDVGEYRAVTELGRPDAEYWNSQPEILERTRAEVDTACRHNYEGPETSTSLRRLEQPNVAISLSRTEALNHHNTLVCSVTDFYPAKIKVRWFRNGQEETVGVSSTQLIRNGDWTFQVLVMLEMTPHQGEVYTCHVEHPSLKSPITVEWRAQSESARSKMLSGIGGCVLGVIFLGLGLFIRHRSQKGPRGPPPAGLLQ
Text: as §1, §2, §3

Substance | Stimulation of DO-11.10 [1] | Inhibition of P15-26-dependent 7B7.3 activation (T-cell hybridoma 7B7.3) | Stimulation of 8I (T-cell hybridoma 8I) | Stimulation of 7B7.3 (T-cell hybridoma 7B7.3) | further results
Lysozyme (Hen) (P46-61): lysozyme-derived peptide restricted by I-A^k [reference compound] |  |  |  |  | Percent of Peptide Bound (I-A^k): 21.5%
Ova (P324-336): peptide from ovalbumin (Ova), residues 324-336, truncated analog of P323-339 (ISQAVHAAHAEIN; UniProt P01012 324-336, looked up, fragment) [reference compound] | responds less well | inhibit 7B7.3 activation in a dose-dependent manner |  |  | Effect on 8I activation (T-cell hybridoma 8I; TA3 presenting cells, P15-26 stimulator, competitor peptide 60 μM): without effect
P12-24: homologous peptide which contains residues 12-24 of cI |  | inhibited activation by P15-26 in a dose-dependent manner; also recorded: inhibition of P15-26-dependent7B7.3 activation was observed; also recorded: inhibit activation by P15-26 in a dose dependent manner | Neither 7B7.3 nor 8I can be stimulated; also recorded: Neither T-cell can be stimulated | Neither 7B7.3 nor 8I can be stimulated; also recorded: Neither T-cell can be stimulated | Effect on 8I activation (IL-2 response) (T-cell hybridoma 8I; I-E^k-restricted hybridoma, P12-24 as competitor): no statistically significant effect; also recorded: had no effect
P15-26: peptide which contains amino acid residues 15-26 of cI |  |  | recognizes the same peptide | is stimulated; also recorded: can be stimulated | EC50 (T-cell hybridoma 7B7.3; 7B7.3 co-cultured with P15-26 and P12-24 at 20 μM, read-out: 50 percent stimulation point of the P15-26 antigen dose response curve): 29.8 ± 2.8 µM; EC50 (T-cell hybridoma 7B7.3; 7B7.3 co-cultured with P15-26 and P12-24 at 60 μM, read-out: 50 percent stimulation point of the P15-26 antigen dose response curve): 70.3 µM; EC50 (T-cell hybridoma 7B7.3; P15-26 cultured with 7B7.3 alone, A20 antigen presenting cells, 24 hrs, IL-2, read-out: 50% stimulation point of the P15-26 antigen dose response curve): 20.7 ± 1.2 µM
P323-339: peptide P323-339 derived from ovalbumin (KISQAVHAAHAEINEAG; UniProt P01012 323-339, looked up, fragment) [reference compound] | responds to |  |  |  | Percent of Peptide Bound (I-A^d): 10.6%
